Measurements as given in patent publication US7317033B2, “Substituted thiophenes: compositions, processes of making, and uses in disease treatment and diagnosis” (Sanofi-Aventis Deutschland GmbH, priority 2002, dated 2008).
Counter-ions that a name gives are not always drawn.

Target: T1, hNHE3 (Homo sapiens, UniProt P48764)
T1 construct: host or cells: cells, not specified
T1 sequence (P48764 26-834): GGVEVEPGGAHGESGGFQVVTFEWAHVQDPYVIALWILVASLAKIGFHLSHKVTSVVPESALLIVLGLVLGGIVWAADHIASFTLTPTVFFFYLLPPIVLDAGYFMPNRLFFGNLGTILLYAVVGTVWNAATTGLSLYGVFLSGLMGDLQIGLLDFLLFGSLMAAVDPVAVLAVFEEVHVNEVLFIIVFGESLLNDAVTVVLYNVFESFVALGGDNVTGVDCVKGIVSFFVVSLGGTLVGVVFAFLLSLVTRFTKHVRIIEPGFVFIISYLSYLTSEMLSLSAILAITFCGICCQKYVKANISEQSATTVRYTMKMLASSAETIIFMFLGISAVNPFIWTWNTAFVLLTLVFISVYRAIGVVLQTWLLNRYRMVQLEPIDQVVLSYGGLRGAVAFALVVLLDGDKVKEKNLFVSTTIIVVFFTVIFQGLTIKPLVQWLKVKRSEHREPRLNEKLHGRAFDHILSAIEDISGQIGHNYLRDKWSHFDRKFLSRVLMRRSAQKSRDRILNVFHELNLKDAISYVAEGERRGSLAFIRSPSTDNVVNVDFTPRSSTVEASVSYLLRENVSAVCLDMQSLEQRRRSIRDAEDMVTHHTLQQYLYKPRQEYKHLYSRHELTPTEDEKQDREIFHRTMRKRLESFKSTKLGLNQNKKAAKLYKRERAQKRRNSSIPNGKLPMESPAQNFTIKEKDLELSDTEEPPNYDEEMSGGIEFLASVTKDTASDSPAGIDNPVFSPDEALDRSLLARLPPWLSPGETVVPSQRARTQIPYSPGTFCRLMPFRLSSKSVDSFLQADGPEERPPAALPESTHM
Assay: recovery of intracellular pH (pHi) after acidification, BCECF fluorescence, hNHE3
Format: cell-based
Details: pH recovery recorded for three minutes
Method: In this test, the recovery of the intracellular pH (pHi) after an acidification, which starts when the NHE is capable of functioning, even under bicarbonate-free conditions, was determined. For this purpose, the pHi was determined using the pH-sensitive fluorescent dye BCECF (Calbiochem, the precursor BCECF-AM is employed). The cells were initially loaded with BCECF. The BCECF fluorescence was determined in a “ratio fluorescence spectrometer” (Photon Technology International, South Brunswick, N.J., USA) with excitation wavelengths of 505 and 440 nm and an emission wavelength of 535 nm, and was converted into the pHi using calibration plots. The cells were incubated in NH4Cl buffer (pH 7.4) (NH4Cl buffer: 115 mM NaCl, 20 mM NH4Cl, 5 mM KCl, 1 mM CaCl2, 1 mM MgSO4, 20 mM Hepes, 5 mM glucose, 1 mg/ml BSA; a pH of 7.4 is established with 1 M NaOH) even during the BCECF loading. The intracellular acidification was induced by addition of 975 μl of an NH4Cl-free buffer (see below) to 25 μl aliquots of the cells incubated in NH4Cl buffer. The subsequent rate of pH recovery was recorded in the case of NHE1 for two minutes, in the case of NHE2 for five minutes and in the case of NHE3 for three minutes. To calculate the inhibitory power of the tested substances, the cells were initially investigated in buffers in which complete or absolutely no pH recovery took place. For complete pH recovery (100%), the cells were incubated in Na^+-containing buffer (133.8 mM NaCl, 4.7 mM KCl, 1.25 mM CaCl2, 1.25 mM MgCl2, 0.97 mM Na2HPO4, 0.23 mM NaH2PO4, 5 mM Hepes, 5 mM glucose, a pH of 7.0 is established with 1 M NaOH). To determine the 0% value, the cells were incubated in an Na^+-free buffer (133.8 mM choline chloride, 4.7 mM KCl, 1.25 mM CaCl2, 1.25 mM MgCl2, 0.97 mM K2HPO4, 0.23 mM KH2PO4, 5 mM Hepes, 5 mM glucose, a pH of 7.0 is established with 1 M KOH). The substances to be tested were made up in the Na^+-containing buffer. Recovery of the intracellular pH at each tested concentration of a substance was expressed as a percentage of the maximum recovery. Using the Sigma-Plot program, the IC50 value of the substance in question was calculated for the individual NHE subtypes using the percentages for pH recovery.

Compound | IC50
Cc1csc(Cl)c1Nc1nc2cc(F)ccc2[nH]1 [Example 2, 2-Chloro-3N-(5-fluoro-2-benzimidazolyl)-4-methyl-3-thienylamine hydrochloride] | 620 nM
Cc1csc(Br)c1Nc1nc2ccccc2[nH]1 [Example 18, 2-Bromo-3N-(2-benzimidazolyl)-4-methyl-3-thienylamine hydrochloride] | 120 nM

Now from value to compound:

IC50 | Compound
560 nM | Cc1csc(Br)c1NC1=N[C@@H]2CCCC[C@H]2N1 [Example 19, trans-R,R-2-Bromo-3N-(3a,4,5,6,7,7a-hexahydro-1H-2-benz-imidazolyl)-4-methyl-3-thienylamine hydrochloride]
840 nM | Cc1csc(Cl)c1Nc1nc2c(O)cccc2[nH]1 [Example 38, 2-Chloro-3N-(4-hydroxy-2-benzimidazolylamino)-4-methylthiophene hydrochloride]
1590 nM | Cc1csc(Cl)c1N(C)c1nc2ccccc2[nH]1 [Example 44, (1H-Benzimidazol-2-yl)-(2-chloro-4-methylthiophen-3-yl)methylamine]
140 nM | Clc1csc(Br)c1Nc1nc2ccccc2[nH]1 [Example 53, 2-Bromo-4-chloro-3N-(2-benzimidazolylamino)thiophene hydrochloride]
220 nM | Fc1ccc2[nH]c(Nc3c(Cl)csc3Cl)nc2c1 [Example 54, (2,4-Dichloro-thiophen-3-yl)-(5-fluoro-1H-benzoimidazol-2-yl)-amine-hydrochloride]
220 nM | Fc1cc2nc(Nc3c(Cl)csc3Cl)[nH]c2cc1F [Example 56, (2,4-Dichloro-thiophen-3-yl)-(5,6-difluoro-1H-benzoimidazol-2-yl)-amine-hydrochloride]
190 nM | Clc1cscc1NC1=N[C@H]2CCCC[C@@H]2N1 [Example 60, trans-(3aS,7aS)-4-Chloro-3N-(3a,4,5,6,7,7a-hexahydro-1H-2-benzimidazolyl)-3-thienylamine Hydrochloride]
540 nM | Clc1csc(Cl)c1NC1=N[C@@H]2CCCC[C@H]2N1 [Example 63, trans-R,R-2,4-Dichloro-3N-(3a,4,5,6,7,7a-hexahydro-1H-2-benzimidazolyl)-3-thienylamine Hydrochloride]

Target: T2, rNHE3 (Rattus norvegicus, UniProt P26433)
T2 construct: host or cells: cells, not specified
Assay: recovery of intracellular pH (pHi) after acidification, BCECF fluorescence, rNHE3
Format: cell-based
Details: pH recovery recorded for three minutes
Method: In this test, the recovery of the intracellular pH (pHi) after an acidification, which starts when the NHE is capable of functioning, even under bicarbonate-free conditions, was determined. For this purpose, the pHi was determined using the pH-sensitive fluorescent dye BCECF (Calbiochem, the precursor BCECF-AM is employed). The cells were initially loaded with BCECF. The BCECF fluorescence was determined in a “ratio fluorescence spectrometer” (Photon Technology International, South Brunswick, N.J., USA) with excitation wavelengths of 505 and 440 nm and an emission wavelength of 535 nm, and was converted into the pHi using calibration plots. The cells were incubated in NH4Cl buffer (pH 7.4) (NH4Cl buffer: 115 mM NaCl, 20 mM NH4Cl, 5 mM KCl, 1 mM CaCl2, 1 mM MgSO4, 20 mM Hepes, 5 mM glucose, 1 mg/ml BSA; a pH of 7.4 is established with 1 M NaOH) even during the BCECF loading. […] The subsequent rate of pH recovery was recorded in the case of NHE1 for two minutes, in the case of NHE2 for five minutes and in the case of NHE3 for three minutes. […] Recovery of the intracellular pH at each tested concentration of a substance was expressed as a percentage of the maximum recovery. Using the Sigma-Plot program, the IC50 value of the substance in question was calculated for the individual NHE subtypes using the percentages for pH recovery.

T2 sequence (P26433 29-831): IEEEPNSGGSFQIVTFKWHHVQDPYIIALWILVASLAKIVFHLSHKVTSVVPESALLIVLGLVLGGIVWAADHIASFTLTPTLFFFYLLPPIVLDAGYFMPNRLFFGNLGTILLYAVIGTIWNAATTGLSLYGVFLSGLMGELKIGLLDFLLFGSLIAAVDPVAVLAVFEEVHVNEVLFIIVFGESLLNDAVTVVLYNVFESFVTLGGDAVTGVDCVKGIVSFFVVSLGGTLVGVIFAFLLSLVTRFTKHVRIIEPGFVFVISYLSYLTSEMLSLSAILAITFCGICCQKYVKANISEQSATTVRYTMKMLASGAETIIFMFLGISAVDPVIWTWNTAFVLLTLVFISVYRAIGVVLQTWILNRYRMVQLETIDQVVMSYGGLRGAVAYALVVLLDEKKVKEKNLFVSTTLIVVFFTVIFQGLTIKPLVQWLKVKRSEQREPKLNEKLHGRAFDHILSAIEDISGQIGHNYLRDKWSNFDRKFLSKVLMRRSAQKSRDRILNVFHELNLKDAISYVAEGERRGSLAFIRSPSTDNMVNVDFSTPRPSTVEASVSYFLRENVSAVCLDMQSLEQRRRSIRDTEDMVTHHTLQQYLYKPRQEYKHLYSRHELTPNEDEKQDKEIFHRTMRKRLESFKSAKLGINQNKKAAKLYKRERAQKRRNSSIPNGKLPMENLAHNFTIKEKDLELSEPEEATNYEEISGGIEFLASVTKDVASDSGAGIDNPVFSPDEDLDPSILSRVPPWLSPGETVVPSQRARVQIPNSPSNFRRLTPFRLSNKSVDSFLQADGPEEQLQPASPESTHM

IC50 | Compound
120 nM | Cc1csc(Cl)c1Nc1nc2ccccc2[nH]1 [Example 12, 2-Chloro-3N-(2-benzimidazolyl)-4-methyl-3-thienylamine hydrochloride]
270 nM | Cc1csc(Cl)c1NC1=N[C@@H]2CCCC[C@H]2N1 [Example 16, trans-R,R-2-chloro-3N-(3a,4,5,6,7,7a-hexahydro-1H-2-benzimidazolyl)-4-methyl-3-thienylamine hydrochloride]

Tested on: not given
Assay: not given
Details: not given

melting point | Compound
200 to 202 °C | Cc1csc(Cl)c1Nc1nc2cc(F)ccc2[nH]1 (as salt: hydrochloride) [Example 2, 2-Chloro-3N-(5-fluoro-2-benzimidazolyl)-4-methyl-3-thienylamine hydrochloride]
260 to 262 °C | Cc1csc(Cl)c1NC1=N[C@@H]2CCCC[C@H]2N1 (as salt: hydrochloride) [Example 16, trans-R,R-2-chloro-3N-(3a,4,5,6,7,7a-hexahydro-1H-2-benzimidazolyl)-4-methyl-3-thienylamine hydrochloride]
